Among the test systems are MOLT-4 leukemia; EKVX NSCLC; SF-539 CNS; 786-0 renal; HOP-62 NSCLC; NCI-H522 lung; SN12C renal; A549 NSCLC; SK-OV-3 ovarian; NCI-H226 lung.
Common to all, as to assay: NCI tumour cell line growth inhibition, 48 h

Each structure is given as a SMILES string.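 Grown in 96-well plates, cells were treated for 48 hours with each compound at five concentrations. Insufficient inhibition: endpoint recorded as highest concentration tested. GI50 is the concentration that inhibits growth by half. TGI denotes the concentration required for complete inhibition of growth.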

Turning to `CCCCCCNc1nc(NCCCCCC)c2[nH]c(NCCCCCC)nc2n1`, the GI50 was 3.12 µM with MOLT-4 leukemia; 5.51 µM in the assay on EKVX NSCLC; 7.39 µM in the assay on SF-539 CNS; 14.5 µM with 786-0 renal; 18.5 µM in the assay with HOP-62 NSCLC; 2.14 µM in the assay with NCI-H522 lung. The GI50 is 3.75 µM in the assay with SN12C renal, 1.58 µM in the assay with A549 NSCLC, 24.8 µM in the assay on SK-OV-3 ovarian and 15.4 µM in the assay on NCI-H226 lung. The TGI worked out at 35.4 µM in the assay on MOLT-4 leukemia; 30 µM with EKVX NSCLC; 21.1 µM in the assay with SF-539 CNS; 27.6 µM in the assay with 786-0 renal; 33 µM in the assay with HOP-62 NSCLC; 7.68 µM in the assay with NCI-H522 lung. Also, the TGI in the assay with SN12C renal was 17.6 µM; with A549 NSCLC, 14.8 µM; with SK-OV-3 ovarian, over 74.1 µM; in the assay with NCI-H226 lung it was 34.3 µM.
For the compound `CN(C)CCNC(=O)Nc1c(C#N)[n+]([O-])c2cc(Cl)c(Cl)cc2[n+]1[O-]`, the GI50 with MOLT-4 leukemia was 3.92 µM; with EKVX NSCLC, 36.8 µM; with SF-539 CNS, 18.9 µM; in the assay on 786-0 renal, 35.8 µM; in the assay on HOP-62 NSCLC, 34.2 µM; in the assay with NCI-H522 lung, 13.1 µM. Besides, the GI50 with SN12C renal was 17.2 µM; with A549 NSCLC, 34 µM; in the assay with SK-OV-3 ovarian, 21.1 µM; in the assay on NCI-H226 lung, 22.3 µM. In addition, the TGI in the assay on MOLT-4 leukemia is 20.9 µM; with EKVX NSCLC it was over 100 µM; with SF-539 CNS, 47.3 µM; with 786-0 renal, over 100 µM; in the assay on HOP-62 NSCLC, over 100 µM; in the assay on NCI-H522 lung it was 35.3 µM. The TGI in the assay on SN12C renal is over 100 µM; in the assay on A549 NSCLC it was over 100 µM; with SK-OV-3 ovarian it was 97.7 µM; with NCI-H226 lung, over 100 µM.
Turning to `CN(C)C(=S)/N=c1\ss/c(=N\S(=O)(=O)c2ccccc2)n1-c1ccccc1`, the TGI in the assay with MOLT-4 leukemia was over 100 µM; in the assay with EKVX NSCLC, over 100 µM; in the assay with SF-539 CNS, over 100 µM; in the assay with 786-0 renal it was over 100 µM; with HOP-62 NSCLC, 98.3 µM; with NCI-H522 lung, over 100 µM. Moreover, the TGI with SN12C renal, in the assay with A549 NSCLC, in the assay with SK-OV-3 ovarian and in the assay on NCI-H226 lung was over 100 µM each time.
For the compound `CCOC(=O)Cc1nc(/C(C#N)=C/c2ccco2)[nH]c(=O)c1C#N`, the TGI in the assay on MOLT-4 leukemia, in the assay with EKVX NSCLC, in the assay on SF-539 CNS, in the assay with 786-0 renal, in the assay with HOP-62 NSCLC and in the assay with NCI-H522 lung was over 100 µM in each case. For the same compound, the TGI in the assay on SN12C renal, in the assay on A549 NSCLC, in the assay with SK-OV-3 ovarian and in the assay on NCI-H226 lung was over 100 µM in each case.
In the case of `COc1cc(/C=C\c2ccc(O)cc2)cc(OC)c1OC`, the TGI was over 100 µM with MOLT-4 leukemia; over 100 µM with EKVX NSCLC; over 100 µM in the assay on SF-539 CNS; over 100 µM with 786-0 renal; over 100 µM with HOP-62 NSCLC; over 22.4 µM in the assay on NCI-H522 lung. Besides, the TGI in the assay on SN12C renal was over 53.6 µM; with A549 NSCLC it was over 100 µM; in the assay with SK-OV-3 ovarian it was 61.6 µM; in the assay with NCI-H226 lung it was over 100 µM.
With `CCCCCC(=O)Oc1ccc(/C(=C(\C)c2ccc(OC)cc2)c2ccc(OCCN3CCCCC3)cc2)cc1`, the GI50 in the assay with MOLT-4 leukemia is 3.54 µM; in the assay on EKVX NSCLC it was 9.92 µM; in the assay with SF-539 CNS, 3.56 µM; in the assay with 786-0 renal, 1.98 µM; in the assay with HOP-62 NSCLC, 5.73 µM; with NCI-H522 lung, 14.4 µM. Besides, the GI50 in the assay on SN12C renal was 10.8 µM; in the assay on A549 NSCLC, 10.1 µM; in the assay on SK-OV-3 ovarian, 10.6 µM; with NCI-H226 lung, 17.3 µM. In addition, the TGI with MOLT-4 leukemia came to 18.8 µM; in the assay on EKVX NSCLC, 22.7 µM; with SF-539 CNS, 14 µM; in the assay with 786-0 renal it was 5.61 µM; in the assay with HOP-62 NSCLC it was 19.8 µM; in the assay with NCI-H522 lung, 30.5 µM. Further, the TGI in the assay with SN12C renal worked out at 23.5 µM; in the assay with A549 NSCLC, 22.4 µM; with SK-OV-3 ovarian it was 22.7 µM; in the assay with NCI-H226 lung, 38.4 µM.
For `COc1ccc(NC2=C(Br)C(=O)C(C)=C(C)C2=O)cc1`, the GI50 in the assay with MOLT-4 leukemia was 2.67 µM; in the assay on EKVX NSCLC, 1.69 µM; in the assay on SF-539 CNS, 13.5 µM; in the assay with 786-0 renal, 15.7 µM; with HOP-62 NSCLC, 15 µM; in the assay on NCI-H522 lung, 12.7 µM. In addition, the GI50 with SN12C renal was 11 µM; in the assay with A549 NSCLC it was 18.7 µM; with SK-OV-3 ovarian, 12.3 µM; in the assay with NCI-H226 lung, 13 µM. The TGI with MOLT-4 leukemia was over 100 µM; with EKVX NSCLC it was 3.12 µM; with SF-539 CNS, 26.7 µM; with 786-0 renal it was 29.9 µM; in the assay on HOP-62 NSCLC, 38.6 µM; in the assay on NCI-H522 lung, 31.8 µM. In addition, the TGI with SN12C renal came out at 23.2 µM; in the assay with A549 NSCLC it was 45.7 µM; with SK-OV-3 ovarian, 26.1 µM; in the assay with NCI-H226 lung, 27.6 µM.

The values are drawn from PubChem BioAssay (NCI).
